The target of the assay is PI3Kδ (p110δ/p85α) (Homo sapiens (Human), UniProt O00329). Description: Example A3: PI3Kδ scintillation proximity assay. The class given is biochemical. The note with it: scintillation proximity assay, 20 μM ATP, 4 nM PI3Kδ; read-out: PI3Kδ SPA IC50. The method in brief: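 p110δ/p85α (4 nM) phosphorylated 20 μM PIP2 with 20 μM ATP plus [γ-33P]ATP in MOPS pH 6.7, MgCl2, DTT, CHAPS, 0.5% DMSO, at RT. Stopped with EDTA/excess ATP, product captured on WGA SPA beads overnight and counted; IC50 from percent control activity versus log inhibitor.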

This is an account of results in patent US10092570B2 (Incyte Corporation, priority 2011, dated 2018).

Where a name gives a salt, the structure may show the parent alone.

Sequence of PI3Kδ (p110δ/p85α) (O00329 whole entry): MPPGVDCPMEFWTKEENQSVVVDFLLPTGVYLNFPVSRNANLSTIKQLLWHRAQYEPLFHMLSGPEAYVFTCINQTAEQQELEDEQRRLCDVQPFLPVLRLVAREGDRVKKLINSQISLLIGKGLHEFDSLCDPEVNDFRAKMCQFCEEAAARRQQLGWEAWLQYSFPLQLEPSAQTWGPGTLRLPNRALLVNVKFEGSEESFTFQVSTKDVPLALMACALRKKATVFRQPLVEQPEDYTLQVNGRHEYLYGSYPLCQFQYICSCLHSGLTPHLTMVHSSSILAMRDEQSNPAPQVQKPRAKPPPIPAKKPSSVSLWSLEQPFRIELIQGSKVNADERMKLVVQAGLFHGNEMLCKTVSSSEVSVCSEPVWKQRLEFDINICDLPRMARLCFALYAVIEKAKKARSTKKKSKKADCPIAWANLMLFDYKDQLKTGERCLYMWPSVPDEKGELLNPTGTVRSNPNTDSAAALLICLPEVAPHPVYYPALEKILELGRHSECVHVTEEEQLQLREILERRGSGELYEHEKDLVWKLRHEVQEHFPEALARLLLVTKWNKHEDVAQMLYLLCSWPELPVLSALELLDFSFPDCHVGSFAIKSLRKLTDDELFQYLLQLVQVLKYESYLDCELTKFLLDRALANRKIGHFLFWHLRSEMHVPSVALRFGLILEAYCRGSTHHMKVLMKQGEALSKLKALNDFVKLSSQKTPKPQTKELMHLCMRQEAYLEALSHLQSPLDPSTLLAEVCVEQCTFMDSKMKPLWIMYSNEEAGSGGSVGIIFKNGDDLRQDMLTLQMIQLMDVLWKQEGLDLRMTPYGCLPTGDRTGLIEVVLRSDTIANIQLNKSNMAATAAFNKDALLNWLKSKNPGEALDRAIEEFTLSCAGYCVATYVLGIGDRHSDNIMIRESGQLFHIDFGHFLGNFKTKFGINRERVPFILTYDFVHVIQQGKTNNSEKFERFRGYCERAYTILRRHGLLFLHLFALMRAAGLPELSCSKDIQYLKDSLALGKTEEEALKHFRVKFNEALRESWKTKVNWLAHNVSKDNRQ
Sequence of PI3Kδ (p110δ/p85α) (P27986 whole entry partner): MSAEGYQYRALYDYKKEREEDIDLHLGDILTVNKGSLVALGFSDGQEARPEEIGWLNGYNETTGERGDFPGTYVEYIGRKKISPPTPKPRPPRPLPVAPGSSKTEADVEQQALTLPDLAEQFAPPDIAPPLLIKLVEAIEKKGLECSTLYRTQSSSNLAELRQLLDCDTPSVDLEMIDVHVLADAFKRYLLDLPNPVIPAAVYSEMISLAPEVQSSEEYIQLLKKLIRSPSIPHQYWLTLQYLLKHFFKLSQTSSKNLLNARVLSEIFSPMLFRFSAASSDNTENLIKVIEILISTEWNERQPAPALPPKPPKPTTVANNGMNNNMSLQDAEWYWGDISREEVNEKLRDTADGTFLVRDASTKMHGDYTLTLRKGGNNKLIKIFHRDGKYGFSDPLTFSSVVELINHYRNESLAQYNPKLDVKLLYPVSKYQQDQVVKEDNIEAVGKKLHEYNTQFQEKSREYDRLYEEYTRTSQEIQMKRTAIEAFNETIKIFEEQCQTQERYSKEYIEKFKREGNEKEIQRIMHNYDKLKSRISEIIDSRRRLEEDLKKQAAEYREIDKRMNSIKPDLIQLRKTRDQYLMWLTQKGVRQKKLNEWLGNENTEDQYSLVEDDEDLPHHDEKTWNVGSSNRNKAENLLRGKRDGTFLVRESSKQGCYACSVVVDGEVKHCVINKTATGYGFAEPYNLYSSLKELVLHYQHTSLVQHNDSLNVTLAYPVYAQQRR

Turning to `COc1c(C(C)n2nc(C)c3c(N)ncnc32)cc(Cl)c(C)c1C1CN(C)C1` (racemic) [Example 5, 1-{1-[5-chloro-2-methoxy-4-methyl-3-(1-methylazetidin-3-yl)phenyl]ethyl}-3-methyl-1H-pyrazolo[3,4-d]pyrimidin-4-amine], the IC50 (as a rule, the concentration needed to halve the response being measured) is below 0.01 µM. `COc1c(C(C)n2nc(C)c3c(N)ncnc32)cc(Cl)c(C)c1-c1cnn(C2CCN(C(C)=O)CC2)c1` (single isomer, unassigned) [Example 182, 1-(1-{3-[1-(1-Acetylpiperidin-4-yl)-1H-pyrazol-4-yl]-5-chloro-2-methoxy-4-methylphenyl}ethyl)-3-methyl-1H-pyrazolo[3,4-d]pyrimidin-4-amine]: the IC50 was below 0.01 µM. The result for `CCOc1c(C(C)n2nc(C)c3c(N)ncnc32)cc(Cl)c(C#N)c1C1CN(CCC(F)(F)F)C1` (single isomer, unassigned) [Example 234, 4-[1-(4-Amino-3-methyl-1H-pyrazolo[3,4-d]pyrimidin-1-yl)ethyl]-6-chloro-3-ethoxy-2-[1-(3,3,3-trifluoropropyl)azetidin-3-yl]benzonitrile] reads below 0.01 µM; that for `CCOc1c(C(C)n2nc(I)c3c(N)ncnc32)cc(Cl)c(C)c1-c1ccc(C(=O)N(C)C)nc1` (racemic) [Example 15, 5-{3-[1-(4-Amino-3-iodo-1H-pyrazolo[3,4-d]pyrimidin-1-yl)ethyl]-5-chloro-2-ethoxy-6-methylphenyl}-N,N-dimethylpyridine-2-carboxamide], below 0.01 µM.

Consider `COc1c(C(C)n2nc(C(F)F)c3c(N)ncnc32)cc(Cl)c(F)c1C1CN(C[C@H](C)O)C1` (stereo partly drawn) [Example 76, (2S)-1-[3-(3-{1-[4-amino-3-(difluoromethyl)-1H-pyrazolo[3,4-d]pyrimidin-1-yl]ethyl}-5-chloro-6-fluoro-2-methoxyphenyl)azetidin-1-yl]propan-2-ol], for which the 50% inhibitory concentration (IC50) was below 0.01 µM. The result for `COc1c(C(C)n2nc(C(F)F)c3c(N)ncnc32)cc(C#N)c(C)c1C1CN(CCO)C1` (racemic) [Example 130, 5-{1-[4-Amino-3-(difluoromethyl)-1H-pyrazolo[3,4-d]pyrimidin-1-yl]ethyl}-3-[1-(2-hydroxyethyl)azetidin-3-yl]-4-methoxy-2-methylbenzonitrile] reads below 0.01 µM; that for `CCOc1c(C(C)n2nc(C)c3c(N)ncnc32)cc(Cl)c(C#N)c1C1CNC1` (single isomer, unassigned) [Example 212, 4-[1-(4-Amino-3-methyl-1H-pyrazolo[3,4-d]pyrimidin-1-yl)ethyl]-2-azetidin-3-yl-6-chloro-3-ethoxybenzonitrile], below 0.01 µM; that for `COc1c(C(C)n2nc(C)c3c(N)ncnc32)cc(Cl)c(C)c1C1CN(C2CCOC2)C1` (centres unmarked) [Example 107, 1-(1-{5-Chloro-2-methoxy-4-methyl-3-[1-(tetrahydrofuran-3-yl)azetidin-3-yl]phenyl}ethyl)-3-methyl-1H-pyrazolo[3,4-d]pyrimidin-4-amine], below 0.01 µM. Next, `COc1c(C(C)n2nc(C)c3c(N)ncnc32)cc(Cl)c(C#N)c1C1CN(C2COC2)C1` (single isomer, unassigned) [Example 274, 4-[1-(4-Amino-3-methyl-1H-pyrazolo[3,4-d]pyrimidin-1-yl)ethyl]-6-chloro-3-methoxy-2-(1-oxetan-3-ylazetidin-3-yl)benzonitrile]: below 0.01 µM.

Consider `CCOc1c(C(C)n2nc(C)c3c(N)ncnc32)cc(Cl)c(C#N)c1C1CN(CC2CCOC2)C1` (single isomer, unassigned) [Example 231, 4-[1-(4-Amino-3-methyl-1H-pyrazolo[3,4-d]pyrimidin-1-yl)ethyl]-6-chloro-3-ethoxy-2-[1-(tetrahydrofuran-3-ylmethyl)azetidin-3-yl]benzonitrile], for which the IC50 was below 0.01 µM.

Turning to `COc1c(C(C)n2nc(C)c3c(N)ncnc32)cc(Cl)c(C)c1C1CN([C@H](C)C(=O)N(C)C)C1` (stereo partly drawn) [Example 159, (2R)-2-(3-{3-[1-(4-Amino-3-methyl-1H-pyrazolo[3,4-d]pyrimidin-1-yl)ethyl]-5-chloro-2-methoxy-6-methylphenyl}azetidin-1-yl)-N,N-dimethylpropanamide], the IC50 was below 0.01 µM.

Turning to `CCOc1c(C(C)n2nc(C)c3c(N)ncnc32)cc(C)c(C#N)c1C1CN(C(C)C)C1` (racemic) [Example 320, 4-[1-(4-amino-3-methyl-1H-pyrazolo[3,4-d]pyrimidin-1-yl)ethyl]-3-ethoxy-2-(1-isopropylazetidin-3-yl)-6-methylbenzonitrile], the IC50 is below 0.01 µM.

As for `COc1c(C(C)n2nc(C(F)F)c3c(N)ncnc32)cc(C#N)c(C)c1C1CN(C(C)C)C1` (racemic) [Example 128, 5-{1-[4-amino-3-(difluoromethyl)-1H-pyrazolo[3,4-d]pyrimidin-1-yl]ethyl}-3-(1-isopropylazetidin-3-yl)-4-methoxy-2-methylbenzonitrile], the IC50 is below 0.01 µM. For the compound `COc1c(C(C)n2nc(C)c3c(N)ncnc32)cc(Cl)c(Cl)c1C1CN(C[C@@H](C)O)C1` (stereo partly drawn) [Example 302, (2R)-1-(3-{3-[1-(4-Amino-3-methyl-1H-pyrazolo[3,4-d]pyrimidin-1-yl)ethyl]-5,6-dichloro-2-methoxyphenyl}azetidin-1-yl)propan-2-ol], the 50% inhibitory concentration (IC50) was below 0.01 µM. Next, `CCOc1c(C(C)n2nc(C#C[C@@H](C)O)c3c(N)ncnc32)cc(Cl)c(C)c1-c1ccc(C(=O)N(C)C)nc1` (stereo partly drawn) [Example 79, 5-[3-(1-{4-Amino-3-[(3R)-3-hydroxybut-1-yn-1-yl]-1H-pyrazolo[3,4-d]pyrimidin-1-yl}ethyl)-5-chloro-2-ethoxy-6-methylphenyl]-N,N-dimethylpyridine-2-carboxamide bis(trifluoroacetate)]: below 0.01 µM. Next, `COc1c(C(C)n2nc(C)c3c(N)ncnc32)cc(Cl)c(F)c1C1CN(C[C@@H](C)O)C1` (stereo partly drawn) [Example 69, (2R)-1-(3-{3-[1-(4-Amino-3-methyl-1H-pyrazolo[3,4-d]pyrimidin-1-yl)ethyl]-5-cyloro-6-fluoro-2-methoxyphenyl}azetidin-1-yl)propan-2-ol]: below 0.01 µM; `CCOc1c(C(C)n2nc(C)c3c(N)ncnc32)cc(Cl)c(C#N)c1N1CC(OC)C1` (centres unmarked) [Example 319, 4-[1-(4-amino-3-methyl-1H-pyrazolo[3,4-d]pyrimidin-1-yl)ethyl]-6-chloro-3-ethoxy-2-(3-methoxyazetidin-1-yl)benzonitrile]: below 0.01 µM. With `COc1c(C(C)n2nc(C(F)F)c3c(N)ncnc32)cc(C#N)c(C)c1C1CN(C[C@H](C)O)C1` (stereo partly drawn) [Example 131, 5-{1-[4-Amino-3-(difluoromethyl)-1H-pyrazolo[3,4-d]pyrimidin-1-yl]ethyl}-3-{1-[(2S)-2-hydroxypropyl]azetidin-3-yl}-4-methoxy-2-methylbenzonitrile], the half-maximal inhibitory concentration (IC50) is below 0.01 µM. Next, `COc1c(C(C)n2nc(C)c3c(N)ncnc32)cc(Cl)c(C#N)c1C1CN(C(C)=O)C1` (single isomer, unassigned) [Example 281, 2-(1-Acetylazetidin-3-yl)-4-[1-(4-amino-3-methyl-1H-pyrazolo[3,4-d]pyrimidin-1-yl)ethyl]-6-chloro-3-methoxybenzonitrile]: below 0.01 µM; `COc1c(C(C)n2ccc3c(N)ncnc32)cc(Cl)c(C)c1-c1ccc(C(=O)N(C)C)nc1` (centres unmarked) [Example 12, 5-{3-[1-(4-Amino-7H-pyrrolo[2,3-d]pyrimidin-7-yl)ethyl]-5-chloro-2-methoxy-6-methylphenyl}-N,N-dimethylpyridine-2-carboxamide trifluoroacetate]: 0.2 to 0.5 µM.

Regarding `CCOc1c(C(C)n2nc(C)c3c(N)ncnc32)cc(Cl)c(C#N)c1C1CN(C(C)CO)C1` (single isomer, unassigned) [Example 224, 4-[1-(4-Amino-3-methyl-1H-pyrazolo[3,4-d]pyrimidin-1-yl)ethyl]-6-chloro-3-ethoxy-2-[1-(2-hydroxy-1-methylethyl)azetidin-3-yl]benzonitrile], the IC50 was below 0.01 µM.

For `CCOc1c(C(C)n2nc(C)c3c(N)ncnc32)cc(Cl)c(C#N)c1C1CN(C(=O)OC(C)C)C1` (single isomer, unassigned) [Example 254, Isopropyl 3-{3-[1-(4-amino-3-methyl-1H-pyrazolo[3,4-d]pyrimidin-1-yl)ethyl]-5-chloro-6-cyano-2-ethoxyphenyl}azetidine-1-carboxylate], the IC50 is below 0.01 µM.

In the case of `CCOc1c(C(C)n2nc(C)c3c(N)ncnc32)cc(Cl)c(C)c1C1CN(C(=O)[C@@H](C)O)C1` (stereo partly drawn) [Example 100, (2R)-1-(3-{3-[1-(4-Amino-3-methyl-1H-pyrazolo[3,4-d]pyrimidin-1-yl)ethyl]-5-chloro-2-ethoxy-6-methylphenyl}azetidin-1-yl)-1-oxopropan-2-ol], the IC50 is below 0.01 µM. As to `COc1c(C(C)n2nc(C)c3c(N)ncnc32)cc(Cl)c(Cl)c1C1CN(C[C@H](C)O)C1` (stereo partly drawn) [Example 301, (2S)-1-(3-{3-[1-(4-Amino-3-methyl-1H-pyrazolo[3,4-d]pyrimidin-1-yl)ethyl]-5,6-dichloro-2-methoxyphenyl}azetidin-1-yl)propan-2-ol], the IC50 is below 0.01 µM. Regarding `CCOc1c(C(C)n2nc(C)c3c(N)ncnc32)cc(Cl)c(F)c1C1COC(=O)N1` (single isomer, unassigned) [Example 353, 4-{3-[1-(4-amino-3-methyl-1H-pyrazolo[3,4-d]pyrimidin-1-yl)ethyl]-5-chloro-2-ethoxy-6-fluorophenyl}-1,3-oxazolidin-2-one], the IC50 was above 0.5 µM. The result for `COc1c(C(C)n2nc(C)c3c(N)ncnc32)cc(Cl)c(C)c1C1CN(C(=O)c2cnn(C)c2)C1` (single isomer, unassigned) [Example 117, 1-[1-(5-Chloro-2-methoxy-4-methyl-3-{1-[(1-methyl-1H-pyrazol-4-yl)carbonyl]azetidin-3-yl}phenyl)ethyl]-3-methyl-1H-pyrazolo[3,4-d]pyrimidin-4-amine] reads below 0.01 µM.
